Assays:
[1] = system: stress ulcer; assay: WIS: Restraint and Water Immersion Stress-Induced Ulcer Inhibition Test; type: in vivo, rat (male Crj:SD or Slc:SD); conditions: 100 mg/kg oral, rats, water immersion stress 7 hours
Summary of the method: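 Fasted male SD rats (6–7 weeks, 5–8 per group) received compound orally at 100 mg/kg in 0.3% CMC-Na or 0.05% Tween 80; 10 min later, restraint with water immersion (21 °C) for 7 h. Summed glandular erosion length gave the ulcer index; inhibition (%) versus vehicle controls.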

[2] = system: isolated gastric fundic gland; assay: CAP: Acid Secretion Inhibition Test In Vitro ([14C]-aminopyrine uptake); type: cell-based, rabbit (male Japanese White); conditions: Oryctolagus cuniculus, 40 min; 10^-5 M compound, 10^-5 M histamine, rabbit isolated gastric fundic gland, 37° C., 40 minutes; read-out: CAP: acid secretion inhibitory rate
Summary of the method: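 Fundic gland suspension (1.6×10^6 cells/ml in HEPES nutrient buffer) was stimulated with histamine 10^-5 M plus test compound 10^-5 M (final) and [14C]-aminopyrine 0.05 μCi/ml, then shaken 40 min at 37 °C. Pellet and supernatant were scintillation-counted to give the NaSCN-corrected specific aminopyrine accumulation ratio, in duplicate.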

[3] = system: Male Slc:ICR mice; parameters: species or system mouse (male Slc:ICR); conditions: mouse, in vivo
Summary of the method: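 Fasted 5-week-old male mice (3 to 5 per group) received a single oral 2,000 mg/kg dose in 0.5% sodium carboxymethyl cellulose, with vehicle controls. Behavior and body weight were followed daily and organs examined at death or one week post-dose. Toxicity was scored 1-5 from mortality and behavioral or organ findings.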

SMILES	WIS: ulcer formation inhibitory rate [1]	inhibition at 10 µM [2]	AT: toxicity at single dose, 5 levels [3]
CC(C)=CCOc1ccc(C(=O)NCCN2CCOCC2)cc1 [Example 28]	64%	88%	3
CC(C)=CCC/C(C)=C/COc1ccc(C(=O)NCCN2CCOCC2)cc1 [Example 31]	54%	99%	5
CC(C)=CCOc1ccc(C(=O)NCCN2CCOCC2)cc1OCC=C(C)C [Example 35]	48%	100%	4

Reference: US5814634A, “Alkylenediamine derivative anti-ulcer drug and antibacterial drug” (Shiseido Co. Ltd., priority 1996, dated 1998)
